Data on ten molecules can be found in PMC8151276, “An Integrated Approach toward NanoBRET Tracers for Analysis of GPCR Ligand Engagement” (Molecules, 2021).

SMILES strings stand for the structures.

Holding throughout (type): binding
The target of one test is T1, P2RY11 (Homo sapiens, UniProt Q96G91).
T1 construct: purchased Promega (in-house HiBiT-GPCR construct library, NanoBRET)
T1 sequence (Q96G91 1-374): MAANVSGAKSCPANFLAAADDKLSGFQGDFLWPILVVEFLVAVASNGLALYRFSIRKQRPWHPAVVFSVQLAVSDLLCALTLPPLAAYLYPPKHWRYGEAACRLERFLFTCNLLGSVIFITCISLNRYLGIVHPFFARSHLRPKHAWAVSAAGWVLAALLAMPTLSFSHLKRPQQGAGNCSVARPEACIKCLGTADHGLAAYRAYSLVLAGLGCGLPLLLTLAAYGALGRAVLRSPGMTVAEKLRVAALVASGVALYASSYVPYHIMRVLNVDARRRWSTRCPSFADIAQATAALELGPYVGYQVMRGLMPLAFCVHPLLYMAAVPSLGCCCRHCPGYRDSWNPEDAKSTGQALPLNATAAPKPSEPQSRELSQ
As to the kind of experiment: NanoBRET screen HiBiT-P2RY11 in HEK293. Here is the method:
(§1) Each tracer candidate was screened across the entire library of HiBiT-GPCR constructs using NanoBRET as the detection modality. As depicted in Figure 4A, the specificity of interactions was evaluated through decrease in BRET due to competitive displacement of a bound tracer by excess parental compound. Each tracer was analyzed for binding to each HiBiT-GPCR fusion in the absence and in the presence of competing parental compound. Briefly, HEK293 cells were transfected with HiBiT-GPCR constructs diluted into promoterless DNA to reduce expression and maximize translocation to the cell surface. Each tracer candidate was then screened at concentrations of 1 μM and 0.1 μM across cells expressing these fusions. Cells were treated for 1.5 h with tracer either alone or in the presence of 20 μM competing parental compound (i.e., control). BRET was measured upon addition of purified LgBiT and subsequent complementation with HiBiT genetically fused to a GPCR. The specificity of interactions was assessed through a decrease in BRET signal due to competitive displacement of the bound tracer. To further gauge the robustness of these interactions, the fold response over the control (i.e., BRETtracer/BRETcontrol) was calculated. We chose a 1.5-fold response, which translates to ≥7-fold signal over noise as the minimal threshold required to score an interaction as positive. […]. Below we highlight the screening results obtained for our exemplary fluorescent tracers based on Clozapine, Amitriptyline and AZD1283.
(§2) HiBiT-GPCR DNA constructs were diluted in 10 mM Tris pH 8 to a final concentration of 0.01 μg/μL, arrayed in 96-well plates and stored at −20 °C. For transfection, HEK293 cells were suspended in Opti-MEM (without phenol red) supplemented with 2% fetal bovine serum (Seradigm) and 100 units/mL penicillin–streptomycin (Gibco) at a final concentration of 220,000 cells/mL and dispensed into white 96-well plates at 90 μL/well. Subsequent transfections and screens were carried using an Agilent Bravo Automated Liquid Handling Platform. First, the 96-well HiBiT DNA arrays were diluted 25-fold in Opti-MEM (without serum or phenol red) to a final concentration of 0.0004 μg/μL and 20 μL of the diluted DNAs were transferred into new 96-well plates. Next, promoterless carrier DNA (1 μg/μL) was diluted 25-fold (0.04 μg/μL) and then dispensed into the diluted arrays at 20 μL/well. Following brief mixing, Viafect transfection reagent (Promega) diluted 16-fold into Opti-MEM was dispensed into the plates at 40 μL/well. After mixing by pipetting, plates were incubated for 10 min on the pipetting station deck. The DNA-transfection reagent complexes were then added to plates containing cells. To facilitate the screen, 10 μL of DNA-transfection reagent complexes were added in duplicates to the top 4 and bottom 4 rows, resulting in two identical 48-well arrays per plate. Plates with transfected cells were incubated for 18–20 h at 37 °C/5% CO2. A screen of each tracer across the entire library using two different concentrations requires duplicate plates of transfected cells. Depending on the number of tracers being screened, transfections can be scaled up using the same ratios. The next day, for each tracer, four 20× screening solutions in tracer dilution buffer (Promega) were prepared: two duplicates at final concentration of 20 μM and two duplicates at a final concentration of 2 μM. A competing unmodified compound was added to one of each duplicate at a final concentration of 400 μM. The four resulting solutions were diluted 4-fold in Opti-MEM without serum or phenol red to generate 5× solutions (5 µM and 0.5 µM tracer +/− 100 μM competing compound). To screen the library, a BioTek MultiFlo FX liquid dispenser was used to dispense 22.5 µL of tracer solution to the top 4 rows and 22.5 µL tracer + competing compound solution to the 4 bottom rows. Plates were briefly mixed on an orbital shaker and incubated for 1.5 h at room temperature. […]

The target of another test is T2, MCHR1 (Homo sapiens, UniProt Q99705).
T2 construct: purchased Promega (in-house HiBiT-GPCR construct library, NanoBRET)
In words: NanoBRET screen HiBiT-MCHR1 in HEK293. On the procedure:
as §1, §2
A general note: Bioluminescence resonance energy transfer reports proximity on the nanometre scale.

The next test has as its target T3, GABBR2 (Homo sapiens, UniProt O75899).
T3 construct: purchased Promega (in-house HiBiT-GPCR construct library, NanoBRET)
T3 sequence (O75899 42-941): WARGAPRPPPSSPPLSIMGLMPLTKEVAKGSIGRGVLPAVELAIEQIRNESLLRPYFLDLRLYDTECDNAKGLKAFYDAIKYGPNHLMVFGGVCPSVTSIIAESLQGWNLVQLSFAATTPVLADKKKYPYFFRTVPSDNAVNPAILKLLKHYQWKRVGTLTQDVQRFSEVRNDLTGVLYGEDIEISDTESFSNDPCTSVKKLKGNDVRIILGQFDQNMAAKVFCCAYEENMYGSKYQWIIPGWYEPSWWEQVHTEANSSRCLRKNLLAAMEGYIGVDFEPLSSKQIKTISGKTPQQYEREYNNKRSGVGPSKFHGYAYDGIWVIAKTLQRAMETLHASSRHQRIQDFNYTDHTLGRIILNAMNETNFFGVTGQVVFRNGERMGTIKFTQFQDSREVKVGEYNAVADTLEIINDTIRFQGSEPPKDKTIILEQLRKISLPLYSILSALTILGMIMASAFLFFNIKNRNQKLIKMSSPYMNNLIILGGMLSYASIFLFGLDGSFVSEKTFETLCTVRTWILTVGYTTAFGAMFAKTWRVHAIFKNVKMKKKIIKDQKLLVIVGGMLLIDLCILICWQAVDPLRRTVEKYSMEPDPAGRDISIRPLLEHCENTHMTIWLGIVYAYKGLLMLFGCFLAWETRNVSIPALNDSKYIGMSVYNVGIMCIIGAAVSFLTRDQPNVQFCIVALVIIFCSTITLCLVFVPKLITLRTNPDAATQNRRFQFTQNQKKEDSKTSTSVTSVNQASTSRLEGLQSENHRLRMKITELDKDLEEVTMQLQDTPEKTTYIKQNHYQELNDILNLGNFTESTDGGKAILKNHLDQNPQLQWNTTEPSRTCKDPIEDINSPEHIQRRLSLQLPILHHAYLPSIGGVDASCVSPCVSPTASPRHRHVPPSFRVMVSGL
As to the kind of experiment: NanoBRET screen HiBiT-GABBR2 in HEK293. On the procedure:
as §1, §2

T2 sequence (Q99705 whole entry): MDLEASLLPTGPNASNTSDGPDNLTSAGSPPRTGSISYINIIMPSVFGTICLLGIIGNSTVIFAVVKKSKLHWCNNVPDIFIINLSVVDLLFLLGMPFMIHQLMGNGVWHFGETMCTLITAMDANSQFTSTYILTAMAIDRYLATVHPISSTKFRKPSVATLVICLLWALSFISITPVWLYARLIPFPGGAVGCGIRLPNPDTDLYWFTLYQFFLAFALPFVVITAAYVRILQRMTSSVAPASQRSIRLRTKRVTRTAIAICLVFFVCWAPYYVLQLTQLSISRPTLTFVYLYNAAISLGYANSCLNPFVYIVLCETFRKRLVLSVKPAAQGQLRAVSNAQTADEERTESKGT

`O=C(CCc1ccc2n1[B-](F)(F)[N+]1=C(c3ccc[nH]3)C=CC1=C2)NCc1ccc(C(=O)NCCOCCOCCNCC(O)COc2cccc3ccccc23)cc1` (centres unmarked) [Propranolol-3-NB590]: the “NanoBRET Fold Response” value on P2RY11 (P2RY11, 0.1μM) amounted to 1.03; at P2RY11 (P2RY11, 1μM), 0.96; at MCHR1 (MCHR1, 0.1μM), 0.96; at MCHR1 (MCHR1, 1μM), 1.03; on GABBR2 (GABBR2, 0.1μM), 0.96; at GABBR2 (GABBR2, 1μM) it was 1.13.

With `COc1ccc2c(n1)c(CCNC(C)=O)cn2CCNC(=O)CCc1ccc2n1[B-](F)(F)[N+]1=C(c3ccc[nH]3)C=CC1=C2` [Azamelatonin-1-NB590], the “NanoBRET Fold Response” value came to 0.89 on P2RY11 (0.1μM tracer); 0.89 at P2RY11 (1μM tracer); 0.96 on MCHR1 (0.1μM tracer); 0.84 at MCHR1 (1μM tracer); 0.96 on GABBR2 (0.1μM tracer); 0.96 at GABBR2 (1μM tracer).

In the case of `O=C(CCOCCOCCOCCOCCNC(=O)CCc1ccc2n1[B-](F)(F)[N+]1=C(c3ccc[nH]3)C=CC1=C2)NCCCN1CCN(C2=Nc3ccccc3Oc3ccc(Cl)cc32)CC1` [Loxapine-a-2-NB590], the “NanoBRET Fold Response” value came out at 1.02 on P2RY11 (P2RY11, tracer 0.1μM); 0.94 at P2RY11 (P2RY11, tracer 1μM); 1.03 on MCHR1 (MCHR1, tracer 0.1μM); 1.20 at MCHR1 (MCHR1, tracer 1μM); 1.03 on GABBR2 (GABBR2, tracer 0.1μM); 0.85 on GABBR2 (GABBR2, tracer 1μM).

Take `COc1ccccc1N1CCN(CCCCN2C(=O)c3ccc(CNC(=O)CCOCCOCCOCCOCCNC(=O)CCc4ccc5n4[B-](F)(F)[N+]4=C(c6ccc[nH]6)C=CC4=C5)cc3C2=O)CC1` [NAN-190-2-NB590]: the “NanoBRET Fold Response” value is reported as 1.09 on P2RY11 (P2RY11, tracer 0.1μM); 0.99 at P2RY11 (P2RY11, tracer 1μM); 0.93 on MCHR1 (MCHR1, tracer 1μM); 0.95 at GABBR2 (GABBR2, tracer 0.1μM); 1.04 at GABBR2 (GABBR2, tracer 1μM).

In the case of `CC(C)N(CC[C@H](c1ccccc1)c1cc(CCNC(=O)c2ccc(CNC(=O)CCc3ccc4n3[B-](F)(F)[N+]3=C(c5ccc[nH]5)C=CC3=C4)cc2)ccc1O)C(C)C` [Tolterodine-BZ-NB590], the “NanoBRET Fold Response” value worked out at 1.07 on P2RY11 (P2RY11, tracer 0.1μM); 0.96 on P2RY11 (P2RY11, tracer 1μM); 0.83 on MCHR1 (MCHR1, tracer 0.1μM); 0.95 on MCHR1 (MCHR1, tracer 1μM); 0.87 on GABBR2 (GABBR2, tracer 0.1μM); 0.71 on GABBR2 (GABBR2, tracer 1μM).

As for `O=C(CCc1ccc2n1[B-](F)(F)[N+]1=C(c3ccc[nH]3)C=CC1=C2)NCCOCCOCCNC(=O)OCCOCCN1CCN(C2=Nc3ccccc3Sc3ccccc32)CC1` [Quetiapine-a-2-NB590], the “NanoBRET Fold Response” value at P2RY11 (P2RY11, tracer 0.1μM) came out at 1.05; on P2RY11 (P2RY11, tracer 1μM), 0.91; on MCHR1 (MCHR1, tracer 0.1μM), 1.04; at MCHR1 (MCHR1, tracer 1μM), 0.84; on GABBR2 (GABBR2, tracer 0.1μM) it was 1.06; on GABBR2 (GABBR2, tracer 1μM), 0.91.

With `CN1CCN(C2=Nc3cc(Cl)ccc3Nc3ccc(CNC(=O)CCOCCOCCOCCOCCNC(=O)CCc4ccc5n4[B-](F)(F)[N+]4=C(c6ccc[nH]6)C=CC4=C5)cc32)CC1` [Clozapine-b-2-NB590], the “NanoBRET Fold Response” value is listed as 1.04 at P2RY11 (P2RY11, 0.1μM tracer); 0.98 on P2RY11 (P2RY11, 1μM tracer); 0.96 on MCHR1 (MCHR1, 0.1μM tracer); 1.00 at MCHR1 (MCHR1, 1μM tracer); 0.96 on GABBR2 (GABBR2, 0.1μM tracer); 1.07 on GABBR2 (GABBR2, 1μM tracer).

As for `CC(C)N(CC[C@H](c1ccccc1)c1cc(CCNC(=O)CCOCCOCCOCCOCCNC(=O)CCc2ccc3n2[B-](F)(F)[N+]2=C(c4ccc[nH]4)C=CC2=C3)ccc1O)C(C)C` [Tolterodine-2-NB590], the “NanoBRET Fold Response” value on P2RY11 (P2RY11, tracer 0.1μM) stood at 1.31; on P2RY11 (P2RY11, tracer 1μM), 0.83; on MCHR1 (MCHR1, tracer 0.1μM), 1.18; on MCHR1 (MCHR1, tracer 1μM), 0.95; on GABBR2 (GABBR2, tracer 0.1μM), 1.15; at GABBR2 (GABBR2, tracer 1μM), 1.02.

Turning to `CN(C)CCC=C1c2ccccc2CCc2ccc(C(=O)NCCNC(=O)CCOCCOCCOCCOCCNC(=O)CCc3ccc4n3[B-](F)(F)[N+]3=C(c5ccc[nH]5)C=CC3=C4)cc21` [Amitriptyline-a-2-NB590], the “NanoBRET Fold Response” value on P2RY11 (tracer at 0.1μM) was 1.13; at P2RY11 (tracer at 1μM), 1.07; on MCHR1 (tracer at 0.1μM), 1.01; at MCHR1 (tracer at 1μM), 1.09; on GABBR2 (tracer at 0.1μM) it was 1.08; at GABBR2 (tracer at 1μM) it was 0.95.

For the molecule `Cc1cc2c(s1)Nc1ccccc1N=C2N1CCN(CCCNC(=O)CCOCCOCCOCCOCCNC(=O)CCc2ccc3n2[B-](F)(F)[N+]2=C(c4ccc[nH]4)C=CC2=C3)CC1` [Olanzapine-a-2-NB590], the “NanoBRET Fold Response” value on P2RY11 (P2RY11, tracer 0.1μM) was 1.00; on P2RY11 (P2RY11, tracer 1μM), 0.89; on MCHR1 (MCHR1, tracer 0.1μM), 1.04; on MCHR1 (MCHR1, tracer 1μM), 1.13; on GABBR2 (GABBR2, tracer 0.1μM), 1.01; at GABBR2 (GABBR2, tracer 1μM), 0.82.
